# Results reported in PubChem BioAssay AID588715 (Vanderbilt Specialized Chemistry Center, 2011).
# Activity calls are given as the source filed them. The rule behind the calls is not given here.
# Biological target: Metabotropic glutamate receptor 5 (Rattus norvegicus) (UniProt P31424)
# Assay: potentiators of rat mGlu5 glutamate response – cell-based, HEK293A, calcium mobilization, SAR follow-up (AID 588715)
# Conditions: HEK293A rat mGluR5, Ca2+ mobilization fluorescence, PAM
# Metabotropic glutamate receptor 5 (Rattus norvegicus), sequence (P31424 whole entry, looked up): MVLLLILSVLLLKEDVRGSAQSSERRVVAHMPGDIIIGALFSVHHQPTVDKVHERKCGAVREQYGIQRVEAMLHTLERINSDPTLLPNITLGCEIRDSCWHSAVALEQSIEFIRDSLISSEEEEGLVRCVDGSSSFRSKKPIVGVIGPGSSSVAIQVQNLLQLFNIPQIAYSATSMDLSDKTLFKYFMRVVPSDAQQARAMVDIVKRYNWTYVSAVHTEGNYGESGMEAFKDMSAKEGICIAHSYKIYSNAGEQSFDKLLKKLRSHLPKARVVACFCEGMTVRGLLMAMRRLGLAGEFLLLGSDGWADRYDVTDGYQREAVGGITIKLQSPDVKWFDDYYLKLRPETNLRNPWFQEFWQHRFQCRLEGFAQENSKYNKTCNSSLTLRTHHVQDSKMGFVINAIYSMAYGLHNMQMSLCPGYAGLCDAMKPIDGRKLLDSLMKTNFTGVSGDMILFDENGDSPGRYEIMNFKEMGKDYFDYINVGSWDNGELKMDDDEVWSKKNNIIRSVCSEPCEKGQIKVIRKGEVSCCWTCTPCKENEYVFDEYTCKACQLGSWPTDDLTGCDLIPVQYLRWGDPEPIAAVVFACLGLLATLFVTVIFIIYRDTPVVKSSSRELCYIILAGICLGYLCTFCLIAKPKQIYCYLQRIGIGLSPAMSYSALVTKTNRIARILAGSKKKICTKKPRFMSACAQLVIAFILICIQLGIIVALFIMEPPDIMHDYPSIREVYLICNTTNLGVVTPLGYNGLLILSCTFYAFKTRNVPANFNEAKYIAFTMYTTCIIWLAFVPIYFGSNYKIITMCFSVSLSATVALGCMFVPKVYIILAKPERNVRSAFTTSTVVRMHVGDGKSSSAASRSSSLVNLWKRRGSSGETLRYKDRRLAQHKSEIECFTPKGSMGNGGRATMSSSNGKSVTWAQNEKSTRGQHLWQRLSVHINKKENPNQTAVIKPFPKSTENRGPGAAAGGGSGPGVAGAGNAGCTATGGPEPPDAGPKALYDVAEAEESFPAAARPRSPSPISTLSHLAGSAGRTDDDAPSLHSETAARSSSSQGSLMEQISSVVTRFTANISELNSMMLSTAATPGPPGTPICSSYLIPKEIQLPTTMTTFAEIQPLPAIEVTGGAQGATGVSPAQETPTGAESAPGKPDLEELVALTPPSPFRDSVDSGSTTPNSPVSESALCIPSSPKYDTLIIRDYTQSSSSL
row,EC50 [nM],SMILES
1,90,C[C@@H](NC(=O)c1ccc(C#Cc2cccc(F)c2)nc1)C(C)(C)O
2,265,O=C(NC1CCC1)c1ccc(C#CC2CCCC2)cn1
3,409,CC(CO)(CO)NC(=O)c1ccc(C#Cc2cccc(F)c2)cn1
4,12,O=C(NC1CCC1)c1ccc(C#Cc2cccc(F)c2)cn1
5,71,O=C(NC1CCC1)c1ccc(C#Cc2cccc(F)c2)nc1
6,25,O=C(NC1CCC1)c1ccc(C#Cc2cccc(F)c2)c[n+]1[O-]
7,523,O=C(c1ccc(C#Cc2ccccc2)cc1)N1CCC(O)CC1
8,8,C[C@@H](NC(=O)c1ccc(C#Cc2cccc(F)c2)cn1)C(C)(C)O
9,6,CC(C)(CO)NC(=O)c1ccc(C#Cc2cccc(F)c2)cn1
10,1280,O=C(NC1CCC1)c1ccc(C#CC2CC2)cn1
11,213,CC(C)(CO)NC(=O)c1ccc(C#Cc2cccc(F)c2)nc1
12,1580,C[C@@H](NC(=O)c1ccc(C#CC2CC2)cn1)C(C)(C)O
13,193,O=C(NC1CC(O)C1)c1ccc(C#Cc2cccc(F)c2)cn1 (stereo not drawn)
14,35,CC(C)(C)NC(=O)c1ccc(C#Cc2cccc(F)c2)nc1
15,2280,O=C(COCc1ccncc1)N1CCN(c2ccc(F)cc2Cl)CC1
16,545,O=C(c1ccc(C#Cc2cccc(F)c2)nc1)N1CCC(O)CC1
17,13,CC(C)(C)NC(=O)c1ccc(C#Cc2cccc(F)c2)cn1
18,4820,O=C(NC1COC1)c1ccc(C#Cc2cccc(F)c2)nc1

# Same assay, conditions: HEK293A rat mGluR5, Ca2+ mobilization fluorescence, PAM; at 29.8 µM (top of the series)
row,percent of glutamate ECmax,SMILES
1,inactive,O=C(NC1CC(O)C1)c1ccc(C#CC2CC2)cn1 (stereo not drawn)
2,inactive,O=C(c1ccc(C#Cc2cccc(F)c2)cn1)N1CCCCC1
3,inactive,O=C(c1ccc(C#Cc2cccc(F)c2)cn1)N1CCC(O)CC1
4,inactive,CC1(NC(=O)c2ccc(C#CC3CC3)nc2)COC1
5,45,C[C@@H](NC(=O)c1ccc(C#CC2CC2)cc1)C(C)(C)O
6,inactive,O=C(NC1CC(O)C1)c1ccc(C#CC2CC2)cc1 (stereo not drawn)
7,inactive,O=C(O)c1ccc(C#Cc2cccc(F)c2)cn1
8,inactive,C[C@@H](NC(=O)c1ccc(C#CC2CC2)nc1)C(C)(C)O
9,inactive,O=C(NC1CCC1)c1ccc(C#CC2CC2)c[n+]1[O-]
10,40,CC1(NC(=O)c2ccc(C#Cc3cccc(F)c3)nc2)COC1
11,inactive,CC(C)(CO)NC(=O)c1ccc(C#CC2CC2)nc1
12,inactive,CC(C)(CO)NC(=O)c1ccc(C#CC2CC2)cc1
13,inactive,CC1(NC(=O)c2ccc(C#CC3CC3)cn2)COC1
14,inactive,CC(C)(CO)NC(=O)c1ccc(C#CC2CC2)cn1
15,inactive,CC1(NC(=O)c2ccc(C#CC3CC3)cc2)COC1
